# According to patent US20090325920A1, “METHODS FOR THE TREATMENT OF A TRAUMATIC CENTRAL NERVOUS SYSTEM INJURY” (priority 2005, published 2009):
# Tests used:
# clinical = details: human, in vivo
# Text: This study was approved by the Institutional Review Board of Emory University, the Drug Safety Monitoring Board (NINDS) and the FDA (IND #58,986). After obtaining informed consent, thirty-six patients meeting the inclusion criteria outlined as follows were studied. […] Inclusion criteria required that each patient be ≧18 years old, have a closed head injury arising from blunt trauma, have a moderate to severe brain injury (Index Glasgow Coma Score (GCS) 4-12) and arrive in the Emergency Department and obtain informed consent (from next-of-kin) in less than 11 hours post injury.
# Aliquots of each solution were assayed for final concentration and sterility. […] Each kit contained six vials. […] The placebo kits were also formulated with 95% ethanol. Because of the alcohol concentration, doses of study drug were mixed with Intralipid® immediately prior to infusion. Each infusion dose was administered over 12 hours and repeated every 12 hours for a total of 72 hours. […] The dosing worksheet was also used to calculate the volume of study medication to be diluted in Intralipid® for each of the remaining infusion reservoirs at a standard rate of 10 cc/hr.
# Nine (5 ml) samples were obtained at the following times during the infusion: pre-infusion (0), 4, 6, 12, 24, 36, 48, 60, and 72 hours. An additional five samples were obtained following cessation of infusion at: 0.5, 1, 2, 4 and 8 hours. Samples were allowed to clot, and then centrifuged After that, the serum was removed and stored at −70° C. until analyzed.
# The primary pharmacokinetic parameter, CL, was estimated as the ratio of the dose to area under the serum concentration-time curve (AUC). AUC's were calculated using the linear trapezoidal rule (Veng-Pedersen (1989) Clin Pharmacokinet, 17(6):424-40). The elimination phase rate constant, ke, was calculated from the serum concentration-time data following the termination of the infusion using iterative non-linear regression (WinNonlin®, Pharsight Corporation, Mountain View, Calif.). Volume of Distribution was estimated as the ratio of CL and ke. Css was estimated as the ratio of Dose and CL. Actual Css was defined as the concentration achieved when the slope of the serum concentration-time curve for three or more consecutive samples was not different from zero.
# Predicted Css concentrations were calculated as the ratio of the infusion rate/clearance. Differences between predicted and measured Css were made using a ‘t’ test for repeated measures. A Bland-Altman analysis was conducted to assess the magnitude of any bias associated with this approach (Bland and Altman (1986) Lancet, 1(8476):307-10). Pharmacokinetic parameter comparisons between male and female were accomplished using a ‘t’ test for independent means. A p value of less than 0.05 was considered the minimum level for rejection of the null hypothesis.
# [1] = Stability of progesterone solutions (isocratic HPLC-UV); assay type: physicochemical
# Text: For all stability testing, the method of […], et al. was used with minor modifications ([…], et al. (1999) Journal of Pharmaceutical & Biomedical Analysis, 19(5):803-8). The method was originally validated to assess the stability of medroxyprogesterone acetate and estradiol valerate tablets. It is an isocratic HPLC-UV method utilizing external standardization. A 5 micron, 4.6×250mm BDS-Hypersil C-18 column (Keystone Scientific) was used and the analyses were completed on an Agilent 100 model HPLC system with photodiode array detector. The mobile phase consisted of 40% 0.07M ammonium acetate buffer, pH 7.2 and 60% acetonitrile. Detection was at […]. […] Reproducibility as assessed by 10 injections of the same preparation on multiple different days was always less that 10%. […] A five point standard curve was run with each analysis.
# [2] = test system: adults with blunt TBI, Glasgow Coma Scale score 4-12; assay: Phase II randomized placebo-controlled trial in acute TBI: signals of activity, 30-day outcomes (Example 3); assay type: in vivo, human; details: for All cause mortality (ITT): intention to treat, n=77
# Text: In addition to monitoring subjects for signs of harm, we hoped to detect signals of activity. […] For this preliminary study, our primary outcome of interest was Glasgow Outcome Scale Extended (GOSE) 30 days post-injury. […] Thirty days following each injury event, we assessed each patient's Glasgow Outcome Score Extended (GOSE) and Disability Rating Scale (DRS). Patients who were severely impaired were classified as “not testable”-a surrogate marker for a poor outcome. Reliability codes were used to record reasons for non-administration of a particular measure, such as physical impairment (e.g., hemiparesis) cognitive impairment (e.g., could not understand instructions), or intoxication. One-year outcomes will be reported at a later date. […] Our secondary aim was to look for signs of drug activity by assessing several measures of outcome. Our a priori primary measure of outcome was the Glasgow Outcome Scale-Extended ([…] et al. (1998) Journal of Neurotrauma 15(8):587-597). […] (1987) Journal of Neurosurgery 67(6):832-840) and 5) the Disability Rating Scale (DRS) (Hall et al. […] Variables determined to be independently associated with all-cause mortality or CNS related-death, such as iGCS (dichotomized into moderate versus severe), injury severity score and Marshall CT score were incorporated in a stepwise logistic regression analyses. Because GCS often fluctuates during the first few hours after injury, additional stepwise logistic regressions were performed using dichotomized GCS 1 day post-injury.
# [3] = 30 days post injury, treatment received
# [4] = Index GCS = 9-12, 30 days post injury
structure (smiles),measurement,setting,value
"CC(=O)[C@H]1CC[C@H]2[C@@H]3CCC4=CC(=O)CC[C@]4(C)[C@H]3CC[C@]12C [progesterone, pregn-4-ene-3,20-dione]",Css actually measured,clinical; both,337 ± 135 ng/mL
same,Css predicted by Ro/CL,clinical; both,332 ± 121 ng/mL
same,clearance,"clinical; both, CL",28.8 mL/min/kg
same,half-life,"clinical; both, terminal half-life",1.78 ± 1 h
same,Css Measured,clinical; female,316 ng/mL
same,clearance,"clinical; female, CL",31.3 mL/min/kg
same,Vd,"clinical; female, iv",1.33 L/kg
same,half-life,"clinical; female, t1/2",2.03 ± 1.08 h
same,clearance,"clinical; male, CL",27.7 mL/min/kg
same,Vd,"clinical; male, iv",1.62 L/kg
same,clearance,"clinical; male, iv",22.2 mL/min/kg
same,half-life,"clinical; male, t1/2",1.6 ± 0.95 h
same,stability of solution,[1]; Intralipid solutions containing progesterone in 95% ethyl alcohol,≥ 24 h
same,stability of solution,"[1]; solution of progesterone in 95% ethyl alcohol, room temperature",up to 2 years
same,Dichotomized Glasgow Outcome Score - Extended: Dead to Upper Severe,[2]; 30 days post injury,70.0%
same,Dichotomized Glasgow Outcome Score - Extended: good or moderate recovery,[2]; 30 days post injury,30.0%
same,Glasgow Outcome Score - Extended: Dead,[2]; 30 days post injury,14.2%
same,Glasgow Outcome Score - Extended: Lower Good,[2]; 30 days post injury,4.3%
same,Glasgow Outcome Score - Extended: Lower Moderate,[2]; 30 days post injury,11.4%
same,Glasgow Outcome Score - Extended: Lower Severe,[2]; 30 days post injury,40.0%
same,Glasgow Outcome Score - Extended: Upper Good,[2]; 30 days post injury,4.3%
same,Glasgow Outcome Score - Extended: Upper Moderate,[2]; 30 days post injury,10.0%
same,Glasgow Outcome Score - Extended: Upper Severe,[2]; 30 days post injury,8.6%
same,Glasgow Outcome Score - Extended: Vegetative State,[2]; 30 days post injury,7.1%
same,All cause mortality (ITT),[2]; 30 days post injury,13%
same,All cause mortality (ITT),"[2]; 30 days post injury, listed as Progesterone",13.0%
same,All cause mortality (TR),[2]; [3],11.8%
same,Neurological deaths,[2]; [3],5.3%
same,Non-neurological deaths,[2]; [3],6.6%
same,dichotomized GOSE versus placebo,[2]; 30 days post-injury,did not significantly differ between groups
same,"Disability Rating Score: Total DRS, mean","[2]; Index GCS = 4-8, 30 days post injury",10.7
same,"Disability Rating Score: Employ, mean",[2]; [4],1.8
same,"Disability Rating Score: Function, mean",[2]; [4],1.5
same,"Disability Rating Score: Total DRS, mean",[2]; [4],5
same,"Duration of Coma, mean",[2]; Initial GCS = 4-8,10.1 days
same,"Duration of Post-Traumatic Amnesia, mean",[2]; Initial GCS = 4-8,18.6 days
same,"Duration of Coma, mean","[2]; Initial GCS = 4-8, listed as Progesterone",10.11 days
same,"Duration of Coma, mean",[2]; Initial GCS = 9-12,4.1 days
same,"Duration of Post-Traumatic Amnesia, mean",[2]; Initial GCS = 9-12,10.7 days
same,trend of mean intracranial pressure levels,"[2]; first 4 days post-injury, subjects with monitors in place, not statistically significant",remained stable
same,"Intracranial Pressure, mean",[2]; infusion day 0,16.0 mm Hg
same,"Intracranial Pressure, mean",[2]; infusion day 1,17.1 mm Hg
same,"Intracranial Pressure, mean",[2]; infusion day 2,15.4 mm Hg
same,"Intracranial Pressure, mean",[2]; infusion day 3,16.0 mm Hg
same,"Intracranial Pressure, mean",[2]; infusion day 4,17.7 mm Hg
same,DRS scores versus placebo,"[2]; moderately brain-injured patients, 30 days post-injury",significantly better DRS scores
same,Survived > 30 days,[2]; treatment received,88.2%
